What was measured:
Type in all cases: in vivo
Setaria faberi (SETFA) [1] = experiment: Pre-Emergence Test (herbicidal, glasshouse pots); conditions: rate 250 g/ha, evaluated after 13 days, five-point scale
[2] = test system: Ipomoea hederacea (IPOHE); experiment: Pre-Emergence Test (herbicidal, glasshouse pots); conditions: rate 250 g/ha, evaluated after 13 days, five-point scale
[3] = test system: Echinochloa crus-galli (ECHCG); experiment: Pre-Emergence Test (herbicidal, glasshouse pots); conditions: rate 250 g/ha, evaluated after 13 days, five-point scale
[4] = test system: Amaranthus retoflexus (AMARE); experiment: Pre-Emergence Test (herbicidal, glasshouse pots); conditions: rate 250 g/ha, evaluated after 13 days, five-point scale
Zea mays (ZEAMX) [5] = experiment: Pre-Emergence Test (herbicidal, glasshouse pots); conditions: rate 250 g/ha, evaluated after 13 days, five-point scale
[6] = test system: Amaranthus palmeri (AMAPA); experiment: Pre-Emergence Test (herbicidal, glasshouse pots); conditions: rate 250 g/ha, evaluated after 13 days, five-point scale
[7] = test system: Amaranthus palmeri (AMAPA); experiment: Post-Emergence Test (herbicidal, glasshouse pots); conditions: rate 250 g/ha; evaluated after 13 days
Summary of the method: (§1)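 Pots in glasshouse (24/16 °C, 14 h light, 65% RH), sprayed with a.i. in acetone/water 50:50 + 0.5% Tween 20; rate in g/ha. Watered twice daily; % damage read at 13 d, scored 5=81-100%, 4=61-80%, 3=41-60%, 2=21-40%, 1=0-20%.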

[8] = test system: Amaranthus retoflexus (AMARE); experiment: Post-Emergence Test (herbicidal, glasshouse pots); conditions: rate 250 g/ha; evaluated after 13 days
Summary of the method: as §1

[9] = test system: Echinochloa crus-galli (ECHCG); experiment: Post-Emergence Test (herbicidal, glasshouse pots); conditions: rate 250 g/ha; evaluated after 13 days
Summary of the method: as §1

[10] = test system: Ipomoea hederacea (IPOHE); experiment: Post-Emergence Test (herbicidal, glasshouse pots); conditions: rate 250 g/ha; evaluated after 13 days
Summary of the method: as §1

Setaria faberi (SETFA) [11] = experiment: Post-Emergence Test (herbicidal, glasshouse pots); conditions: rate 250 g/ha; evaluated after 13 days
Summary of the method: as §1

Zea mays (ZEAMX) [12] = experiment: Post-Emergence Test (herbicidal, glasshouse pots); conditions: rate 250 g/ha; evaluated after 13 days
Summary of the method: as §1

Row | Structure (SMILES) | percentage damage caused to the plant, SETFA (Setaria faberi (SETFA) [1]) | percentage damage caused to the plant, IPHOE [2] | percentage damage caused to the plant, ECHCG [3] | percentage damage caused to the plant, AMARE [4] | percentage damage caused to the plant, ZEAMX (Zea mays (ZEAMX) [5]) | percentage damage caused to the plant, AMAPA [6] | Post-Emergence Test AMAPA percentage damage (five-point scale) [7] | Post-Emergence Test AMARE percentage damage (five-point scale) [8] | Post-Emergence Test ECHCG percentage damage (five-point scale) [9] | Post-Emergence Test IPHOE percentage damage (five-point scale) [10] | Post-Emergence Test SETFA percentage damage (five-point scale) (Setaria faberi (SETFA) [11]) | Post-Emergence Test ZEAMX percentage damage (five-point scale) (Zea mays (ZEAMX) [12])
1 | CCc1cc(Oc2cc(=O)c(C(=O)O)c(-c3ccc(Cl)c(Cl)c3)n2CC)no1 [Compound 39, 2-(3,4-dichlorophenyl)-1-ethyl-6-(5-ethylisoxazol-3-yl)oxy-4-oxo-pyridine-3-carboxylic acid] | 1 (1=0-20%) | 1 (1=0-20%) | 1 (1=0-20%) | 1 (1=0-20%) | 0 | 1 (1=0-20%) | 1 (1=0-20%) | 1 (1=0-20%) | 1 (1=0-20%) | 2 (2=21-40%) | 1 (1=0-20%) | 0
2 | CCn1c(Oc2ccc(S(C)(=O)=O)cc2)cc(=O)c(C(=O)O)c1-c1ccc(Cl)c(Cl)c1 [Compound 40, 2-(3,4-dichlorophenyl)-1-ethyl-6-(4-methylsulfonyl-phenoxy)-4-oxo-pyridine-3-carboxylic acid] | 2 (2=21-40%) | 3 (3=41-60%) | 0 | 1 (1=0-20%) | 0 | 1 (1=0-20%) | 2 (2=21-40%) | 2 (2=21-40%) | 1 (1=0-20%) | 4 (4=61-80%) | 2 (2=21-40%) | 1 (1=0-20%)
3 | CCn1c(Oc2ccc(C)c(F)c2)cc(=O)c(C(=O)O)c1-c1ccc(Cl)c(Cl)c1 [Compound 41, 2-(3,4-dichlorophenyl)-1-ethyl-6-(3-fluoro-4-methyl-phenoxy)-4-oxo-pyridine-3-carboxylic acid] | 0 | 2 (2=21-40%) | 0 | 1 (1=0-20%) | 0 | 0 | 2 (2=21-40%) | 2 (2=21-40%) | 1 (1=0-20%) | 3 (3=41-60%) | 1 (1=0-20%) | 0
4 | CCn1c(Oc2ccc3nccnc3c2)cc(=O)c(C(=O)O)c1-c1ccc(Cl)c(Cl)c1 [Compound 42, 2-(3,4-dichlorophenyl)-1-ethyl-4-oxo-6-quinoxalin-6-yloxy-pyridine-3-carboxylic acid] | 1 (1=0-20%) | 2 (2=21-40%) | 1 (1=0-20%) | 2 (2=21-40%) | 0 | 2 (2=21-40%) | 1 (1=0-20%) | 1 (1=0-20%) | 1 (1=0-20%) | 3 (3=41-60%) | 1 (1=0-20%) | 1 (1=0-20%)
5 | CCn1c(Oc2cnsn2)cc(=O)c(C(=O)O)c1-c1ccc(Cl)c(Cl)c1 [Compound 43, 2-(3,4-dichlorophenyl)-1-ethyl-4-oxo-6-(1,2,5-thiadiazol-3-yloxy)pyridine-3-carboxylic acid] | 1 (1=0-20%) | 3 (3=41-60%) | 1 (1=0-20%) | 1 (1=0-20%) | 0 | 0 | 2 (2=21-40%) | 1 (1=0-20%) | 2 (2=21-40%) | 4 (4=61-80%) | 2 (2=21-40%) | 0

— patent publication US20250324971A1, “HERBICIDAL DERIVATIVES” (SYNGENTA CROP PROTECTION AG, priority 2022, published 2025)
